{"source": "patent US11219614B2", "about": "“Combination cancer therapy with pentaaza macrocyclic ring complex and ascorbate compound” (Galera Labs, LLC, priority 2016, dated 2022)", "key": {"[1]": {"system": "Lung cancer cells (H292)", "test": "clonogenic cell survival assay, H292", "format": "cell-based", "settings": "ascorbate 1 h in combination with 5, 10 or 20 μM GC4419 24 h; compared to monotherapies; FIG. 2", "protocol": "(§1) FIG. 2 is a plot showing the surviving fraction of H292 cells for increasing amounts of ascorbate, as determined by a clonogenic cell survival assay to used determine the effects of the compound alone and in combination with a pentaaza macrocyclic ring complex (GC4419). Lung cancer cells (H292) were exponentially grown in culture for 48 hours. The cells were then treated with 5-20 μM GC4419 for 24 hours, and ascorbate (Asc) for one hour, followed immediately by clonogenic assay. The cells were trypsinized, counted, replated at varying lower densities and incubated. Plates were stained and counted for clonogenic survival assays.\nas §1, with “The effect” for “FIG. 2 is a plot showing the surviving fraction”, “ascorbate was tested in” for “H292 cells for increasing amounts of ascorbate, as determined by”, “to” for “to used”, “hour” for “hour,”, “followed” for “followed immediately”, “by immediate” for “by”"}, "[2]": {"system": "head and neck squamous cell carcinoma cells (SCC25)", "test": "clonogenic cell survival assay, SCC25", "format": "cell-based, Human", "settings": "ascorbate 1 h in combination with 5, 10 or 20 μM GC4419 24 h, both present at the same time; compared to monotherapies or sequential treatment with media replacement; FIG. 3", "protocol": "FIG. 3 is a plot showing the surviving fraction of SCC25 cells for increasing amounts of ascorbate, as determined by a clonogenic cell survival assay used to determine the effects of the compound alone and in combination with a pentaaza macrocyclic ring complex (GC4419). Human head and neck squamous cell carcinoma cells (SCC25) were exponentially grown in culture for 24 hours. The cells were then treated with 5-20 μM GC4419 for 24 hours and ascorbate (Asc) for one hour, followed by immediate clonogenic assay. The cells were trypsinized, counted, replated at varying lower densities and incubated. Plates were stained and counted for clonogenic survival assays.\nThe effect of ascorbate was tested in a clonogenic cell survival assay to determine the effects of the compound alone and in combination with a pentaaza macrocyclic ring complex (GC4419). Human head and neck squamous cell carcinoma cells (SCC25) were exponentially grown in culture for 24 hours. The cells were then treated with 5-20 μM GC4419 for 24 hours, and ascorbate (Asc) for one hour, followed by immediate clonogenic assay. The cells were trypsinized, counted, replated at varying lower densities and incubated. Plates were stained and counted for clonogenic survival assays."}, "[3]": {"system": "head and neck squamous cell carcinoma cells (SQ20B)", "test": "clonogenic cell survival assay, SQ20B", "format": "cell-based, Human", "protocol": "FIG. 5 is a plot showing the surviving fraction of SQ20B cells for increasing amounts of ascorbate, as determined by a clonogenic cell survival assay used to determine the effects of the compound alone and in combination with a pentaaza macrocyclic ring complex (GC4419). Human head and neck squamous cell carcinoma cells (SQ20B) were exponentially grown in culture for 48 hours. The cells were then treated with 5-20 μM GC4419 for 24 hours, followed by treatment with 5-20 pmol/cell ascorbate for 1 hour. The cells were then trypsinized, counted, replated at varying lower densities and incubated. Plates were stained and counted for clonogenic survival assays.\nFIG. 7 is a graph showing the surviving fraction of SQ20B cells treated with ascorbate and combinations including ascorbate. The effects of ascorbate in combination with a pentaaza macrocyclic ring complex (GC4419) was tested in a clonogenic cell survival assay to determine the effects of the combination alone and when paired with ionizing radiation. Human head and neck squamous cell carcinoma cells (SQ20B) were plated and grown in culture for 48 hours. The cells were then treated with 5 μM GC4419 for 24 hours and 10 pmol/cell ascorbate (AA) for 1 hour, either alone, in combination (GC+AA), and/or paired with a dose of ionizing radiation (2 Gy). After the ionizing radiation dose, the cells were trypsinized, counted, replated at varying lower densities and incubated. Plates were stained and counted for clonogenic survival assays.\nFIG. 8 is a graph showing the surviving fraction of SQ20B cells treated with ascorbate and combinations including ascorbate. The effects of ascorbate in combination with a pentaaza macrocyclic ring complex (GC4419) was tested in a clonogenic cell survival assay to determine the effects of the combination alone and when paired with the chemotherapeutic agent cisplatin. Human head and neck squamous cell carcinoma cells (SQ20B) were plated and grown in culture for 48 hours. The cells were then treated with cisplatin for 6 hours, 10 μM GC4419 for 3 hours, and 10 pmol/cell ascorbate (AA) for 1 hour. The cells were then trypsinized, counted, replated at varying lower densities and incubated. Plates were stained and counted for clonogenic survival assays.\nThe effect of ascorbate was tested in a clonogenic cell survival assay to determine the effects of the compound alone and in combination with a pentaaza macrocyclic ring complex (GC4419). Human head and neck squamous cell carcinoma cells (SQ20B) were exponentially grown in culture for 48 hours. The cells were then treated with 5-20 μM GC4419 for 24 hours, followed by treatment with 5-20 pmol/cell ascorbate for 1 hour. The cells were then trypsinized, counted, replated at varying lower densities and incubated. Plates were stained and counted for clonogenic survival assays.\nThe effects of ascorbate in combination with a pentaaza macrocyclic ring complex (GC4419) was tested in a clonogenic cell survival assay to determine the effects of the combination alone and when paired with ionizing radiation. Human head and neck squamous cell carcinoma cells (SQ20B) were plated and grown in culture for 48 hours. […] After the ionizing radiation dose, the cells were trypsinized, counted, replated at varying lower densities and incubated. Plates were stained and counted for clonogenic survival assays. […]"}, "[4]": {"system": "Normal human fibroblasts (NHFs)", "test": "surviving fraction of normal human fibroblasts", "format": "cell-based", "settings": "5 μM GC4419 24 h followed by 10 pmol/cell ascorbate 1 h; FIG. 9", "protocol": "FIG. 9 is a graph showing the normalized surviving fraction of normal human fibroblasts (NHFs) treated with GC4419, ascorbate, and a combination of GC4419 and ascorbate. Normal human fibroblasts (NHFs) were plated and grown in culture (low FBS media) for 48 hours. The NHFs were then treated with 5 μM GC4419 for 24 hours followed by treatment with 10 pmol/cell ascorbate for 1 hour.\nNormal human fibroblasts (NHFs) were plated and grown in culture (low FBS media) for 48 hours. The NHFs were then treated with 5 μM GC4419 for 24 hours followed by treatment with 10 pmol/cell ascorbate for 1 hour."}, "[5]": {"system": "VEGFr inhibitor-induced pulmonary disease", "settings": "rat model; cited from earlier work"}}}
{"compound": "[Cl][Mn][Cl].c1cc2nc(c1)CN[C@H]1CCCC[C@@H]1NCCN[C@H]1CCCC[C@@H]1NC2", "note": "[GC4419]", "values": [{"measurement": "cell killing (clonogenic survival)", "setting": "[1]", "value": "significant enhancements in cell killing"}, {"measurement": "cell killing (clonogenic survival)", "setting": "[2]", "value": "significant enhancements in cell killing"}, {"measurement": "synergistic activity of the combination", "setting": "[3]; 5 μM GC4419 24 h + 10 pmol/cell ascorbate 1 h (GC+AA), FIG. 7", "value": "more than merely an additive effect"}, {"measurement": "cell killing (clonogenic survival)", "setting": "[3]; 5 μM GC4419 24 h + 10 pmol/cell ascorbate 1 h (GC+AA), compared to control and to each alone, FIG. 7", "value": "significant enhancements in cell killing"}, {"measurement": "cytotoxicity (clonogenic survival)", "setting": "[3]; 5-20 pmol/cell ascorbate 1 h in combination with 5, 10 or 20 μM GC4419 24 h, FIG. 5", "value": "increases the cytotoxicity of GC4419 or ascorbate"}, {"measurement": "sensitization to ionizing radiation", "setting": "[3]; GC+AA+IR (2 Gy) compared to IR 2Gy alone, FIG. 7", "value": "sensitized the cancer cells to radiation"}, {"measurement": "cell killing (clonogenic survival)", "setting": "[3]; cisplatin 6 h + 10 μM GC4419 3 h + 10 pmol/cell ascorbate 1 h, compared to control and cisplatin, GC4419 or ascorbate monotherapies, FIG. 8", "value": "significant enhancements in cell killing"}, {"measurement": "cytotoxicity to normal cells", "setting": "[4]", "value": "does not increase cytotoxicity of ascorbate"}, {"measurement": "pulmonary disease", "setting": "[5]", "value": "attenuate VEGFr inhibitor-induced pulmonary disease"}]}
